Measured values from article PMC9944328 (Nature Communications, 2023).
pEC50: −log10 of the molar value. Read-outs that look alike come from different tables or passages of the source.

Tested on: SSTR2 mutants
Test: SSTRs Gi-mediated cAMP inhibition, GloSensor, HEK293, 5 μM forskolin, 15 min room temperature (SSTR2 mutants)
Type: cell-based, human
Design: Best-fit Bottom, cAMP inhibition / Best-fit Top, cAMP inhibition / Span, cAMP inhibition / Bottom (best-fit value) / Top (best-fit value) / Span (best-fit value) / Span (best-fit) / Bottom (best-fit) / Top (best-fit) / Best-fit Bottom / Best-fit Top / Best-fit Span / Top / Span: scale not given here
Procedure: The levels of the intracellular 3′, 5′-cyclic AMP (cAMP) were measured by the GloSensor cAMP assay (Promega) as described in the previous studies[28],[41] which has been widely used. The human full-length SSTRs and mutants were cloned into the pcDNA3.1+ vector with a HA signal sequence followed by a Flag tag at the N-terminus. HEK293 cells (ATCC, CRL-1573) were seeded into 6-well microplates at a density of 1.0 × 10^6 cells/well and cultured for 24 h at 37 °C with 5% CO2. Cells were then co-transfected with SSTR wild-type or mutants and GloSensor plasmids. After 24 h of transfection, the cells were dissociated with TrypLE™ Express Enzyme (1X) (Thermo Fisher Scientific) and collected by centrifugation at 500 × g for 5 min. Then the collected cells were suspended in Hank’s balanced salt solution [HBSS (Thermo Fisher Scientific)] supplemented with […] (YEASEN), and then the suspension cells were seeded into 96-well plates with 90 μl/well. After incubating at room temperature for 40 min, 5 μM forskolin and ligands diluted in HBSS were added to each well and the plates were incubated at room temperature for 15 min. […] were measured using the Synergy H1 microplate reader (BioTek) and the data presented are means of at least three independent experiments.

[1] = cAMP inhibition, SSTR2 F127A-1 (run 1)
[2] = cAMP inhibition, SSTR2 F127A-2 (run 2)
[3] = cAMP inhibition, SSTR2 F127A-3 (run 3)
[4] = cAMP inhibition, SSTR2 F208A-1 (run 1)
[5] = cAMP inhibition, SSTR2 F208A-2 (run 2)
[6] = cAMP inhibition, SSTR2 F208A-3 (run 3)
[7] = cAMP inhibition, SSTR2 I130A-1 (run 1)
[8] = cAMP inhibition, SSTR2 I130A-2 (run 2)
[9] = cAMP inhibition, SSTR2 I130A-3 (run 3)
[10] = cAMP inhibition, SSTR2 Y205A-1 (run 1)
[11] = cAMP inhibition, SSTR2 Y205A-2 (run 2)
[12] = cAMP inhibition, SSTR2 Y205A-3 (run 3)
[13] = cAMP inhibition, SSTR2 T194H, run 1
[14] = cAMP inhibition, SSTR2 T194H, run 2
[15] = cAMP inhibition, SSTR2 T194H, run 3
[16] = cAMP inhibition, SSTR2 T194H, run 4
[17] = cAMP inhibition, SSTR2 V103N, run 1
[18] = cAMP inhibition, SSTR2 V103N, run 2
[19] = cAMP inhibition, SSTR2 V103N, run 3
[20] = cAMP inhibition, SSTR2 V103N, run 4

C[C@@H](O)[C@@H]1NC(=O)[C@H](CCCCN)NC(=O)[C@@H](Cc2c[nH]c3ccccc23)NC(=O)[C@H](Cc2ccccc2)NC(=O)[C@@H](NC(=O)[C@H](N)Cc2ccccc2)CSSC[C@@H](C(=O)N[C@H](CO)[C@@H](C)O)NC1=O [octreotide]
Top (best-fit value) (W188A-2, run 2): 109.9 | pEC50 (W188A-2, run 2, read-out: EC50 (best-fit value)): 10.14 | Bottom (best-fit value) (W188A-3, run 3): 3.856 | LogEC50 (best-fit value) (W188A-3, run 3): -9.118 | Span (best-fit value) (W188A-3, run 3): 88.75 | Top (best-fit value) (W188A-3, run 3): 92.61 | pEC50 (W188A-3, run 3, read-out: EC50 (best-fit value)): 9.12 | Bottom (best-fit) (W269A-1): -8.692 | LogEC50 (best-fit) (W269A-1): -8.978 | Span (best-fit) (W269A-1): 108.2 | Top (best-fit) (W269A-1): 99.53 | pEC50 (W269A-1, read-out: EC50 (best-fit)): 8.98 | Bottom (best-fit) (W269A-2): -48.61 | LogEC50 (best-fit) (W269A-2): -9.361 | Span (best-fit) (W269A-2): 149.9 | Top (best-fit) (W269A-2): 101.3 | pEC50 (W269A-2, read-out: EC50 (best-fit)): 9.36 | Bottom (best-fit) (W269A-3): 12.63 | LogEC50 (best-fit) (W269A-3): -8.938 | Span (best-fit) (W269A-3): 80.26 | Top (best-fit) (W269A-3): 92.88 | pEC50 (W269A-3, read-out: EC50 (best-fit)): 8.94 | Best-fit Bottom (Y302A-1): -1.091 | Best-fit Span (Y302A-1): 74.2 | Best-fit Top (Y302A-1): 73.11 | LogEC50 (Y302A-1): -6.976 | pEC50 (Y302A-1, read-out: EC50): 6.98 | Best-fit Bottom (Y302A-2): -6.663 | Best-fit Span (Y302A-2): 106.6 | Best-fit Top (Y302A-2): 99.95 | LogEC50 (Y302A-2): -7.6 | pEC50 (Y302A-2, read-out: EC50): 7.60 | Best-fit Bottom (Y302A-3): -0.9588 | Best-fit Span (Y302A-3): 65.18 | Best-fit Top (Y302A-3): 64.22 | LogEC50 (Y302A-3): -6.976 | cAMP inhibition potency of mutants (alanine replacement of F208, F272, Y302, Q126, D122 in SSTR2): significantly decreased the cAMP inhibition potency | Bottom (best-fit value) [1]: 3.745 | LogEC50 (best-fit value) [1]: -9.177 | Span (best-fit value) [1]: 105.4 | Top (best-fit value) [1]: 109.1 | pEC50 (cAMP inhibition, SSTR2 F127A-1 (run 1), read-out: EC50 (best-fit value)): 9.18 | Bottom (best-fit value) [2]: 6.147 | LogEC50 (best-fit value) [2]: -8.668 | Span (best-fit value) [2]: 104 | Top (best-fit value) [2]: 110.1 | pEC50 (cAMP inhibition, SSTR2 F127A-2 (run 2), read-out: EC50 (best-fit value)): 8.67 | Bottom (best-fit value) [3]: 2.844 | LogEC50 (best-fit value) [3]: -8.526 | Span (best-fit value) [3]: 104.1 | Top (best-fit value) [3]: 107 | pEC50 (cAMP inhibition, SSTR2 F127A-3 (run 3), read-out: EC50 (best-fit value)): 8.53 | Bottom (best-fit value) [4]: 10.39 | LogEC50 (best-fit value) [4]: -7.519 | Top (best-fit value) [4]: 89.25 | pEC50 (cAMP inhibition, SSTR2 F208A-1 (run 1), read-out: EC50 (best-fit value)): 7.52 | Bottom (best-fit value) [5]: -4.181 | LogEC50 (best-fit value) [5]: -7.462 | Top (best-fit value) [5]: 54.09 | pEC50 (cAMP inhibition, SSTR2 F208A-2 (run 2), read-out: EC50 (best-fit value)): 7.46 | Bottom (best-fit value) [6]: 13.21 | LogEC50 (best-fit value) [6]: -7.519 | Top (best-fit value) [6]: 113.5 | Bottom (best-fit value) [7]: 14.54 | LogEC50 (best-fit value) [7]: -8.728 | Span (best-fit value) [7]: 76.49 | Top (best-fit value) [7]: 91.02 | pEC50 (cAMP inhibition, SSTR2 I130A-1 (run 1), read-out: EC50 (best-fit value)): 8.73 | Bottom (best-fit value) [8]: 3.27 | LogEC50 (best-fit value) [8]: -7.739 | Span (best-fit value) [8]: 103.8 | Top (best-fit value) [8]: 107 | pEC50 (cAMP inhibition, SSTR2 I130A-2 (run 2), read-out: EC50 (best-fit value)): 7.74 | Bottom (best-fit value) [9]: 1.85 | LogEC50 (best-fit value) [9]: -7.833 | Span (best-fit value) [9]: 103.6 | Top (best-fit value) [9]: 105.4 | pEC50 (cAMP inhibition, SSTR2 I130A-3 (run 3), read-out: EC50 (best-fit value)): 7.83 | Bottom (best-fit value) [10]: -15.61 | LogEC50 (best-fit value) [10]: -10.22 | Span (best-fit value) [10]: 114 | Top (best-fit value) [10]: 98.43 | pEC50 (cAMP inhibition, SSTR2 Y205A-1 (run 1), read-out: EC50 (best-fit value)): 10.22 | Bottom (best-fit value) [11]: -21.77 | LogEC50 (best-fit value) [11]: -10.31 | Span (best-fit value) [11]: 99.08 | Top (best-fit value) [11]: 77.31 | pEC50 (cAMP inhibition, SSTR2 Y205A-2 (run 2), read-out: EC50 (best-fit value)): 10.31 | Bottom (best-fit value) [12]: 1.644 | LogEC50 (best-fit value) [12]: -9.761 | Span (best-fit value) [12]: 161.4 | Top (best-fit value) [12]: 163 | pEC50 (cAMP inhibition, SSTR2 Y205A-3 (run 3), read-out: EC50 (best-fit value)): 9.76 | LogEC50 (best-fit) [13]: -7.55 | Top (best-fit) [13]: 86.06 | pEC50 (cAMP inhibition, SSTR2 T194H, run 1, read-out: EC50 (best-fit)): 7.55 | LogEC50 (best-fit) [14]: -7.55 | Top (best-fit) [14]: 86.06 | pEC50 (cAMP inhibition, SSTR2 T194H, run 2, read-out: EC50 (best-fit)): 7.55 | LogEC50 (best-fit) [15]: -7.274 | Top (best-fit) [15]: 99.32 | pEC50 (cAMP inhibition, SSTR2 T194H, run 3, read-out: EC50 (best-fit)): 7.27 | LogEC50 (best-fit) [16]: -7.828 | Top (best-fit) [16]: 111.2 | pEC50 (cAMP inhibition, SSTR2 T194H, run 4, read-out: EC50 (best-fit)): 7.83 | LogEC50 (best-fit) [17]: -9.644 | Top (best-fit) [17]: 94 | pEC50 (cAMP inhibition, SSTR2 V103N, run 1, read-out: EC50 (best-fit)): 9.64 | LogEC50 (best-fit) [18]: -9.644 | Top (best-fit) [18]: 94 | pEC50 (cAMP inhibition, SSTR2 V103N, run 2, read-out: EC50 (best-fit)): 9.64 | LogEC50 (best-fit) [19]: -9.75 | Top (best-fit) [19]: 93.06 | pEC50 (cAMP inhibition, SSTR2 V103N, run 3, read-out: EC50 (best-fit)): 9.75 | LogEC50 (best-fit) [20]: -9.608 | Top (best-fit) [20]: 108.8 | pEC50 (cAMP inhibition, SSTR2 V103N, run 4, read-out: EC50 (best-fit)): 9.61
